One data set has as its target T1, S1P5 (Homo sapiens, UniProt Q9H228).
T1 construct: purchased Eurofins
Nature of the data set: [35S]GTPγS binding assay, agonist activity at S1P5. Particulars: for EC50: n = 3, errors in parentheses derived from 95% confidence intervals, nine concentrations 100 fM to 10 μM; for Efficacy (%): relative efficacy versus S1P against S1P5, single high concentration, single 96-well plate. The format is biochemical. Here is the method:
The membrane preparation was diluted to […] with assay buffer and mixed 1 : 1 (v/v) with a 0.4 mg mL^-1 solution of saponin in assay buffer. […] MerckTM Multiscreen® HTS 96 well filter plates were pre-wet with 70% aqueous EtOH (50 μL per well) for 30 seconds and then washed twice with assay buffer (200 μL per well). […]

Data set [1] has as its target human serum albumin (HSA) (Homo sapiens, UniProt P02768). The data set is described as follows: Plasma protein binding by human serum albumin (HSA) coated column. Format: in vitro ADME. The following applies: read-out: %PPB (percentage of plasma protein binding). The procedure:
The physicochemical properties of both sets of compounds was initially performed to assess their potential as brain imaging agents. The calculated partition coefficient (log P), the permeability (Pm), the membrane partition coefficient (Km) and the percentage of plasma protein binding (%PPB) were determined for each compound using established methods (see ESI, ^† Table S1).[22,23] […] The permeability and membrane partition coefficient for the majority of compounds were well within the ideal limits for these parameters (Pm < 0.5; Km < 250), which are based on known CNS imaging agents.[23]
1. Physiochemical Propert ies of 6-arylaminobenz amides 7a–7h and 8a–8e.1
Compound log Pa Pmb Kmb %PPBc
aCalcul ated using Ch emDraw. bDeterm ined using i mmobil ised art ific ial membr ane (IAM) column .
cDetermin ed using human seru m albu min (HSA) coa ted colu mn.

The target in the next data set is T2, S1P1 (Homo sapiens, UniProt P21453).
T2 construct: purchased Eurofins
T2 sequence (P21453 whole entry): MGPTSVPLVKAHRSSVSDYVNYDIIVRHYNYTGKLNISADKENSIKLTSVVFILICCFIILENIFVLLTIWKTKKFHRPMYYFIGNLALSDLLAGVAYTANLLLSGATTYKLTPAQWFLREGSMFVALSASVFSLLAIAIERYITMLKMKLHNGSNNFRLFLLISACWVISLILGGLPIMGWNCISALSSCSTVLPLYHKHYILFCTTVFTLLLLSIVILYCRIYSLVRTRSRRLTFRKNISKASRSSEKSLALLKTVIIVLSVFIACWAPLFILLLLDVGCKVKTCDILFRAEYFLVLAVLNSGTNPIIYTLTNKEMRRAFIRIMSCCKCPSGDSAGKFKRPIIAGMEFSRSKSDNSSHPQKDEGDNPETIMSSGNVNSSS
Nature of the data set: [35S]GTPγS binding assay, agonist activity at S1P1. Format: biochemical. Particulars: n = 3, errors in parentheses derived from 95% confidence intervals. The procedure:
(§1) A GTPγS assay was then conducted to evaluate receptor agonist activity of each compound at nine concentrations from 100 fM to 10 μM (n = 3).[24,25] Initially, all compounds were tested for agonist activity with S1P5 and relative efficacy versus S1P (Table 1).[26] […] Previous work by the Novartis group described the importance of hydrogen bonding between the carboxamide and 2-substituent, to maintain an in-plane conformation of the amide that was critical for agonist activity against S1P receptors.[16] […] This was more pronounced for compounds with both a bulky alkoxy group and a 3-substituent, with 6-arylaminobenzamide 7h found to have the weakest activity. […] Based on the binding studies and the physicochemical results, 6-arylaminobenzamide 7g, named as TEFM78 was chosen as the lead compound.
(§2) The assay buffer was prepared from HEPES (20 mM), NaCl (100 mM), MgCl2 (10 mM) and fatty acid-free BSA (0.1%) at pH 7.4. ChemiScreen™ S1P1–3,5 lysophospholipid receptor membrane preparations were obtained from Eurofins. The membrane preparation was diluted to […] with assay buffer and mixed 1 : 1 (v/v) with a 0.4 mg mL^−1 solution of saponin in assay buffer. Nine concentrations of the compounds to be tested were prepared (10 μM, 1 μM, 100 nM, 10 nM, 1 nM, 100 pM, 10 pM, 1 pM, 100 fM). Merck™ Multiscreen® HTS 96 well filter plates were pre-wet with 70% aqueous EtOH (50 μL per well) for 30 seconds and then washed twice with assay buffer (200 μL per well). To each well was added membrane preparation (25 μL), GDP in assay buffer (25 μL, 2 μM), [^35S]GTPγS in assay buffer (25 μL, 1.2 nM) and test compound (25 μL). For total binding, S1P solution in assay buffer (25 μL, 10 μM) was added and for basal, assay buffer (25 μL) was added. The assay plate was incubated at 30 °C for 0.5 h before the addition of cold assay buffer (100 μL per well) to stop the reaction. The plate was filtered using a Millipore vacuum manifold, with a pressure between 600–800 mbar and then dried at 50 °C for 1–2 h. Betaplate Scint scintillation cocktail (30 μL per well) was added and the disintegrations per minute were determined using a Wallac 1450 Microbeta Trilux liquid scintillation and luminescence counter. EC50 values were derived from non-linear regression analysis using GraphPad Prism Version 6 (GraphPad Software Inc).

The target of a further data set is T3, S1P2 (Homo sapiens, UniProt O95136).
T3 construct: purchased Eurofins
T3 sequence (O95136 whole entry): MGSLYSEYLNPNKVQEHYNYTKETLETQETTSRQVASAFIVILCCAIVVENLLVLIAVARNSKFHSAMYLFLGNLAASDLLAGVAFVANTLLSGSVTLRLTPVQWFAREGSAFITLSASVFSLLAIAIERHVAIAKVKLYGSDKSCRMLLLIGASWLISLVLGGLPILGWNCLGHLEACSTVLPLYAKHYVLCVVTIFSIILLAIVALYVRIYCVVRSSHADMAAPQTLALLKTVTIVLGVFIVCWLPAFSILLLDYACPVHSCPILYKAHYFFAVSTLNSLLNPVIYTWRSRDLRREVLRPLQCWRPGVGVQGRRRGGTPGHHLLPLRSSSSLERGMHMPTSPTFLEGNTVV
The data set is described as follows: [35S]GTPγS binding assay, agonist activity at S1P2. The format is biochemical. The following applies: n = 3, errors in parentheses derived from 95% confidence intervals. The procedure:
as §1, §2

A further data set deals with T4, S1P3 (Homo sapiens, UniProt Q99500).
T4 construct: purchased Eurofins
T4 sequence (Q99500 whole entry): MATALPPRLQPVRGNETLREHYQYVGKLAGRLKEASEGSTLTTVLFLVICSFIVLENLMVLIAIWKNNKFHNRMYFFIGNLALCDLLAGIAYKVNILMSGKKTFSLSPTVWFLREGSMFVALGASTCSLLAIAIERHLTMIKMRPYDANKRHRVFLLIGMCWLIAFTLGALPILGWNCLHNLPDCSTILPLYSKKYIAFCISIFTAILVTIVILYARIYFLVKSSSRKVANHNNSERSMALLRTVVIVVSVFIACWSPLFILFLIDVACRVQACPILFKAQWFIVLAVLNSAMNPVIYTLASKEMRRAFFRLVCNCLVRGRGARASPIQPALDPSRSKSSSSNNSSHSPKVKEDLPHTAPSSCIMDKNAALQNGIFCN
Nature of the data set: [35S]GTPγS binding assay, agonist activity at S1P3. Format: biochemical. The following applies: n = 3, errors in parentheses derived from 95% confidence intervals. Here is the method:
as §1, §2

human serum albumin (HSA), sequence (P02768 25-609): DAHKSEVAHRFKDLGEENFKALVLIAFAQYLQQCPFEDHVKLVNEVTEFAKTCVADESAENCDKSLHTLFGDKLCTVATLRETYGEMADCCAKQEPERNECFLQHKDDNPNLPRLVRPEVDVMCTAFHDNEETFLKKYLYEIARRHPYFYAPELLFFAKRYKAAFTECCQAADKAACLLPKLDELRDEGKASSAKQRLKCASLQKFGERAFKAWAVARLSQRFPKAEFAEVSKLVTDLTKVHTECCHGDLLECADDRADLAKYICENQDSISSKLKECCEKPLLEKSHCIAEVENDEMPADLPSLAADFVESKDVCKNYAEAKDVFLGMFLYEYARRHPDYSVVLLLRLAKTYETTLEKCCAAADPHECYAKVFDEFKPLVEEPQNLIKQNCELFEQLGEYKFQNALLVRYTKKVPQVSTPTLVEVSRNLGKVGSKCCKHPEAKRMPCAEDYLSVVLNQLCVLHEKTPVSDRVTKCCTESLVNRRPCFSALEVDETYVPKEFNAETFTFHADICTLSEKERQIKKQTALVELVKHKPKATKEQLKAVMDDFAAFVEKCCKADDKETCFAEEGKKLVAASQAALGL
T1 sequence (Q9H228 whole entry): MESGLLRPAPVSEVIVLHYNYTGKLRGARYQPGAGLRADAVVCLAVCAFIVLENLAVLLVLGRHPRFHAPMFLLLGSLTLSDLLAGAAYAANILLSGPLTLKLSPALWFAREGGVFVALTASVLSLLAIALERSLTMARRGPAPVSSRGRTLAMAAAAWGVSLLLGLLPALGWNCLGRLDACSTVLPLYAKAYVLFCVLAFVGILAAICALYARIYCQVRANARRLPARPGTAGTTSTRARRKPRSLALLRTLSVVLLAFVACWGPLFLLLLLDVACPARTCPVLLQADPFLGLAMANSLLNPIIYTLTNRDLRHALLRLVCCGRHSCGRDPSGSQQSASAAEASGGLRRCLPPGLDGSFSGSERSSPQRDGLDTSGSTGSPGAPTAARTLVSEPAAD

With `Cc1cc(F)cc(C)c1Nc1cccc(OC(C)C)c1C(N)=O` [Compound 7a, 6-[(4′-Fluoro-2′,6′-dimethylphenyl)amino]-2-isopropoxybenzamide], on S1P5, the EC50 is 419 nM and the “Efficacy (%)” value amounted to 105%. Moreover, the fraction unbound in data set [1] was found to be 0.01.
In the case of `COc1cccc(Nc2c(C)cc(F)cc2C)c1C(N)=O` [Compound 7b, 6-[(4′-Fluoro-2′,6′-dimethylphenyl)amino]-2-methoxybenzamide], the EC50 at S1P5 was 39.8 nM; at S1P1 it was above 10000 nM; on S1P2, above 10000 nM; on S1P3, above 10000 nM. Also, at S1P5, the “Efficacy (%)” value came to 108%. Also, the fraction unbound in data set [1] came to 0.01.
Take `Cc1cc(F)cc(C)c1Nc1cccc(OCC(C)C)c1C(N)=O` [Compound 7c, 6-[(4′-Fluoro-2′,6′-dimethylphenyl)amino]-2-isobutoxybenzamide]: at S1P5, the EC50 turned out to be 180 nM and the “Efficacy (%)” value is recorded as 137%.
In the same order, the values of `CCCCOc1cccc(Nc2c(C)cc(F)cc2C)c1C(N)=O` [Compound 7d, 2-n-Butoxy-6-[(4′-fluoro-2′,6′-dimethylphenyl)amino]benzamide] are 234 nM and 140%.
As to `Cc1cc(F)cc(C)c1Nc1cccc(OCCC(C)C)c1C(N)=O` [Compound 7e, 6-[(4′-Fluoro-2′,6′-dimethylphenyl)amino]-2-(3′′-methyl-n-butoxy)benzamide], at S1P5, the concentration giving a half-maximal response (EC50) turned out to be 49 nM and the “Efficacy (%)” value is given as 102%.
In the case of `C=CCOc1cccc(Nc2c(C)cc(F)cc2C)c1C(N)=O` [Compound 7f, 2-(Allyloxy)-6-[(4′-fluoro-2′,6′-dimethylphenyl)amino]benzamide], the EC50 on S1P5 was 6.66 nM; on S1P1, 25.6 nM; at S1P2, above 10000 nM; at S1P3 it was 27.6 nM. Moreover, on S1P5, the “Efficacy (%)” value turned out to be 164%.
Regarding `COc1c(C)ccc(Nc2c(C)cc(F)cc2C)c1C(N)=O` [Compound 7g, 6-[(4′-Fluoro-2′,6′-dimethylphenyl)amino]-2-methoxy-3-methylbenzamide], the concentration for a half-maximal effect (EC50) was 22.3 nM on S1P5, 104 nM on S1P1, above 10000 nM on S1P2 and 2030 nM at S1P3. Further, the “Efficacy (%)” value at S1P5 is 183%. Also, the fraction unbound in data set [1] amounted to 0.01.
As to `Cc1cc(F)cc(C)c1Nc1ccc(C)c(OCC(C)C)c1C(N)=O` [Compound 7h, 6-[(4′-Fluoro-2′,6′-dimethylphenyl)amino]-2-isobutoxy-3-methylbenzamide], at S1P5, the EC50 was determined as 2240 nM and the “Efficacy (%)” value is 154%.
Consider `COc1c(-c2ccc(F)cc2)ccc(Nc2c(C)cc(C)cc2C)c1C(N)=O` [Compound 8a, 3-(4′′-Fluorophenyl)-6-(mesitylamino)-2-methoxybenzamide], for which, at S1P5, the EC50 was 72.3 nM and the “Efficacy (%)” value is listed as 129%.
In the same order, the values of `COc1c(-c2ccccc2F)ccc(Nc2c(C)cc(C)cc2C)c1C(N)=O` [Compound 8b, 3-(2′′-Fluorophenyl)-6-(mesitylamino)-2-methoxybenzamide] are 954 nM and 136%.
Regarding `COc1ccc(-c2ccc(Nc3c(C)cc(C)cc3C)c(C(N)=O)c2OC)c(F)c1` [Compound 8c, 3-(2′′-Fluoro-4′′-methoxyphenyl)-6-(mesitylamino)-2-methoxybenzamide], the EC50 was 29.8 nM on S1P5, 76 nM at S1P1, above 10000 nM at S1P2 and above 10000 nM at S1P3. Besides, the “Efficacy (%)” value at S1P5 is given as 120%.
`COc1ccc(F)c(-c2ccc(Nc3c(C)cc(C)cc3C)c(C(N)=O)c2OC)c1` [Compound 8d, 3-(2′′-Fluoro-5′′-methoxyphenyl)-6-(mesitylamino)-2-methoxybenzamide]: at S1P5, the EC50 came to 612 nM and the “Efficacy (%)” value was 142%.
As to `COc1c(-c2cccnc2F)ccc(Nc2c(C)cc(C)cc2C)c1C(N)=O` [Compound 8e, 3-(2′′-Fluoropyridin-3′′-yl)-6-(mesitylamino)-2-methoxybenzamide], the EC50 is 23.4 nM on S1P5, 0.336 nM at S1P1, above 10000 nM on S1P2 and 172 nM at S1P3. In addition, on S1P5, the “Efficacy (%)” value turned out to be 175%. Further, the fraction unbound in data set [1] was 0.01.
As for `CCCCCCCCCCCCC/C=C/[C@@H](O)[C@@H](N)COP(=O)(O)O` [S1P (1), sphingosine-1-phosphate], at S1P5, the “Efficacy (%)” value was 100%. Moreover, at S1P3, the EC50 is 42.6 nM.
